Source: PMC6754302 (Cell chemical biology, 2019)
Entries after “also recorded” stand apart in the source; their conditions may differ.

How the values were obtained:
Recombinant C6 enzyme [1] = biological target: T1, Recombinant C6 enzyme (Homo sapiens, UniProt P55212); conditions: 10 μM inhibitor
T1 sequence (P55212 24-179 limits assumed): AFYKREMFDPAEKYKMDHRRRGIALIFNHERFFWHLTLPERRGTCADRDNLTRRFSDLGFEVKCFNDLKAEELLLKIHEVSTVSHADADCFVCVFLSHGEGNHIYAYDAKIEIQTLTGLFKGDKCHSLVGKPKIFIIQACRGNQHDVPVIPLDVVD
T1 sequence (P55212 194-293 limits assumed): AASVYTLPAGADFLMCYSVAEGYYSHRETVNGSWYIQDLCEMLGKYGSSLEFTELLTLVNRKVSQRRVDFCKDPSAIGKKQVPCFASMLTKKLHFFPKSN

caspase-6 (C6) [2] = biological target: T2, caspase-6 (C6) (Homo sapiens, UniProt P55212); test: C6 activity assay using the VEID-AFC peptide as a substrate; type: biochemical
T2 sequence (P55212 24-179 limits assumed): T1 sequence (P55212 24-179 limits assumed)
T2 sequence (P55212 194-293 limits assumed): T1 sequence (P55212 194-293 limits assumed)

[3] = biological target: T3, intracellular C6 activity (Homo sapiens, UniProt P55212); test: Intracellular lamin A cleavage ELISA; type: cell-based
T3 sequence (P55212 24-293): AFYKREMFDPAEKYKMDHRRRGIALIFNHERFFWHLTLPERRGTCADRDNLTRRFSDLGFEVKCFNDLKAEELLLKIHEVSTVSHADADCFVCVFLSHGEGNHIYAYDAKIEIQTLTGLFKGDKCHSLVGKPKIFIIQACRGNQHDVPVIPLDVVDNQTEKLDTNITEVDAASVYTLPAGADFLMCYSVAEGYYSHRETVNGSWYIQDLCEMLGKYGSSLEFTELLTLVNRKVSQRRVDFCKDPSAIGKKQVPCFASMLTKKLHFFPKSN

C6-HTT interaction = biological target: T4, C6-HTT interaction (Homo sapiens, UniProt P55212); test: Co-immunoprecipitation of HTT with DDK-tagged C6 from co-transfected COS-7 cells; type: cell-based
T4 sequence (P55212 24-293): T3 sequence (P55212 24-293)

C6 = biological target: T5, C6 (Homo sapiens, UniProt P55212); type: cell-based; conditions: for intracellular C6-mediated cleavage of HTT1–1212 (HTT1–586 fragment): COS-7 cells co-transfected with C6 and HTT1–1212, compound in the media
T5 sequence (P55212 24-293): T3 sequence (P55212 24-293)

Recombinant C6 enzyme [4] = biological target: T1, Recombinant C6 enzyme; test: Washout experiment; type: biochemical; conditions: read-out: inhibition of C6 activity after washout
pro-C6 (C6 zymogen) [5] = biological target: T6, pro-C6 (C6 zymogen) (Homo sapiens, UniProt P55212); test: LE22 labelling of C6 in lysates of transfected COS-7 cells; type: cell-based
T6 sequence (P55212 1-293): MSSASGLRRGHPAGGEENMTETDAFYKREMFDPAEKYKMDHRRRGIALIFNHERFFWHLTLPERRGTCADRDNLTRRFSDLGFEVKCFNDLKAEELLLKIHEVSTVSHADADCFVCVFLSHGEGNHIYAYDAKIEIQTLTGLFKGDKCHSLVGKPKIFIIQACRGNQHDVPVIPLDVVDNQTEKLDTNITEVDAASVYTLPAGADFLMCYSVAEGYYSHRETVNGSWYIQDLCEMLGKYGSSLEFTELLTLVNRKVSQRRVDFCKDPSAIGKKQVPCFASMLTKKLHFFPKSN

pro-C6 (C6 zymogen) [6] = test: as above; type: cell-based, human; conditions: 10 μM in the culture medium, co-transfection with mHTT1–586
caspase-6 (C6) [7] = biological target: T2, caspase-6 (C6); test: TR-FRET-based C6 activity assay with HTT1–1212 as substrate; type: biochemical; conditions: for shift of dose-response curve with pre-incubation time: 0 min vs 60 min pre-incubation of C6 with compound

With `O=c1oc(C#Cc2ccccc2)nc(O)c1Cc1ccccc1` [PG3d, 5-Benzyl-4-hydroxy-2-(phenylethynyl)-6H-1,3-oxazin-6-one] the “LE22 labelling of C6 after inhibitor pre-incubation” value (Recombinant C6 enzyme [1]) was “did not block accessibility of the active site”, the “inhibitory effect on C6-mediated cleavage of small peptide substrates (VEID-AFC)” value (caspase-6 (C6) [2]) was “minimal inhibitory effect” and the “inhibition of lamin A proteolysis” value [3] was “strong inhibition”. The “reduction in HTT co-immunoprecipitation” value (C6-HTT interaction; PG3d 10 μM in the media, mHTT1–1212) was 50%, the “intracellular C6-mediated cleavage of HTT1–1212 (HTT1–586 fragment)” value (C6) was “inhibited” and the inhibition at 10 µM (Recombinant C6 enzyme [4]) was 100%. The “mHTT1–586-induced increase of LE22 binding to pro-C6 (C6wt)” value (pro-C6 (C6 zymogen) [5]; 10 μM in the culture medium, co-transfection with mHTT1–586) was “completely reversed”, the “LE22 labelling for deltaPro and D23A C6” value (pro-C6 (C6 zymogen) [6]) was “normalized the amount of LE22 labelling” and the “inhibition of HTT proteolysis” value (caspase-6 (C6) [7]) was “strong inhibition”. For the same compound, the “shift of dose-response curve with pre-incubation time” value (caspase-6 (C6) [7]) was “shift towards a lower IC50 value”.
With `CC(C)[C@H](NC(=O)c1ccc2ccccc2n1)C(=O)N[C@@H](CC(=O)O)C(=O)COc1c(F)cccc1F` [Q-VD-OPh] the “effect on co-immunoprecipitation of HTT with C6” value (C6-HTT interaction; Q-VD-OPh 3 μM) was “not prevented; also recorded: no significant difference”, the “intracellular generation of active C6 subunits (p18)” value (C6; COS-7 cells co-transfected with C6 and HTT1–1212, Q-VD-OPh 3 μM) was “reduces the intracellular generation of active C6 subunits” and the “intracellular C6-mediated cleavage of HTT1–1212 (HTT1–586 fragment)” value (C6) was “lowers HTT1–586 fragment levels”. For the same compound, the “proportion of pro-C6 and p18-C6 labelled with LE22” value (pro-C6 (C6 zymogen) [5]; C6-transfected cells treated with Q-VD-OPh prior to lysis) was “decreased”.
For VDVAD-CHO [reference compound], the “LE22 labelling of C6 after inhibitor pre-incubation” value (Recombinant C6 enzyme [1]) was “is replaced by the irreversible binding of the LE22 probe” and the “shift of dose-response curve with pre-incubation time” value (caspase-6 (C6) [7]) was “did not exhibit time-dependent behaviour”.
zVAD-fmk was tested, and the “LE22 labelling of C6 after inhibitor pre-incubation” value (Recombinant C6 enzyme [1]) was “prevented labelling of C6 with LE22”.
